{"source": "ChEMBL document CHEMBL1201862", "about": "“PubChem BioAssay data set” (2004)", "key": {"[1]": {"target": "DNA damage-inducible transcript 3 protein (Mus musculus, UniProt P35639)", "sequence (P35639 whole entry)": "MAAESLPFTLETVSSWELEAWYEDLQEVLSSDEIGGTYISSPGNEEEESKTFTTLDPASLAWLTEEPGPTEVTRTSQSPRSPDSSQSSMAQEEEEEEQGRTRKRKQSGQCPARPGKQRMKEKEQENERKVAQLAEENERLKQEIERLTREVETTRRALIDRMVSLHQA", "assay_type": "functional, Cricetulus griseus"}, "[2]": {"target": "T1, Disintegrin and metalloproteinase domain-containing protein 17 (Homo sapiens, UniProt P78536)", "T1 sequence (P78536 whole entry, the tested form may be a part)": "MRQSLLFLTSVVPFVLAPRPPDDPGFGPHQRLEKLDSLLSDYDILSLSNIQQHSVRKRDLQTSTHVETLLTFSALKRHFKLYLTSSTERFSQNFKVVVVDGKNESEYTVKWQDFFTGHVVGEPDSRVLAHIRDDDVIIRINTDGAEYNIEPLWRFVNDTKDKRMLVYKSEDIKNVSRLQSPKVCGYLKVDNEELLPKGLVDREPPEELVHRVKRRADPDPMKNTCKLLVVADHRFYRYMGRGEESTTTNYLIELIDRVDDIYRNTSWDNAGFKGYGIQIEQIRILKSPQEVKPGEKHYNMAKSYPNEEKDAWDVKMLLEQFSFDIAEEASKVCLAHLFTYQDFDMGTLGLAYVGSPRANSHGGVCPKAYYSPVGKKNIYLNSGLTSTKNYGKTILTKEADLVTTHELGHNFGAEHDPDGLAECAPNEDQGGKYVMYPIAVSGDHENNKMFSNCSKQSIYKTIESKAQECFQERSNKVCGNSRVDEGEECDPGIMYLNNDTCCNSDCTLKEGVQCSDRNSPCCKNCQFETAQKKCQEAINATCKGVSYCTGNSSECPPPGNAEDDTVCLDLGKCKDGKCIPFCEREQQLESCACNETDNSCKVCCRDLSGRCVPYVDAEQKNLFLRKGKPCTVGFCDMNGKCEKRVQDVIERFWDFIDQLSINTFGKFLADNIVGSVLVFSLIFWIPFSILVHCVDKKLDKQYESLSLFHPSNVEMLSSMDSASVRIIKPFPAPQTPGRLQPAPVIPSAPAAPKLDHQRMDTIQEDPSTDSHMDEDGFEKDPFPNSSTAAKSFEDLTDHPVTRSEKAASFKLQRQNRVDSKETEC", "test": "ADAM17 protease inhibitors, dose response, counter-screen for ADAM10 exosite inhibitor project, biochemical, quenched FRET substrate (AID 743253)"}, "[3]": {"target": "T1, Disintegrin and metalloproteinase domain-containing protein 17", "test": "exosite inhibitors of ADAM17, dose response, biochemical (AID 743260)"}, "[4]": {"target": "T2, Probable nicotinate-nucleotide adenylyltransferase (Staphylococcus aureus (strain N315), UniProt P65502)", "T2 sequence (P65502 whole entry)": "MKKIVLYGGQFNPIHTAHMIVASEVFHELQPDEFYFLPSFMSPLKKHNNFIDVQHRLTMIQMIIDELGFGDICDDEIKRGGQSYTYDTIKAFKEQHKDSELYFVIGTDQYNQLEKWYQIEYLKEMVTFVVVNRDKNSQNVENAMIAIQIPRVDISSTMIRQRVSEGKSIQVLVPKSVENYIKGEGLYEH", "assay_type": "functional, Staphylococcus aureus subsp. aureus N315", "conditions": "read-out: IC50_Mean"}, "[5]": {"target": "T2, Probable nicotinate-nucleotide adenylyltransferase", "assay_type": "functional, Staphylococcus aureus subsp. aureus N315"}, "[6]": {"test": "ADAM10 protease inhibitors, dose response, selectivity assay for ADAM17 exosite inhibitor project, biochemical, FRET peptide substrate, recombinant human ADAM10 (AID 743259);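 note: ADAM10 enzyme cleaving a FRET peptide substrate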"}, "[7]": {"test": "ADAM10 inhibitors, peptide cleavage, dose response, biochemical, QFRET (AID 743254);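 note: ADAM10 enzyme with the DM2 quenched FRET peptide as substrate; EDANS fluorescence gain as the protease cuts the substrate; inhibitor potency against ADAM10 proteolytic activity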"}, "[8]": {"target": "T3, Latent membrane protein 1 (Human herpesvirus 4 (strain B95-8), UniProt P03230)", "T3 sequence (P03230 whole entry)": "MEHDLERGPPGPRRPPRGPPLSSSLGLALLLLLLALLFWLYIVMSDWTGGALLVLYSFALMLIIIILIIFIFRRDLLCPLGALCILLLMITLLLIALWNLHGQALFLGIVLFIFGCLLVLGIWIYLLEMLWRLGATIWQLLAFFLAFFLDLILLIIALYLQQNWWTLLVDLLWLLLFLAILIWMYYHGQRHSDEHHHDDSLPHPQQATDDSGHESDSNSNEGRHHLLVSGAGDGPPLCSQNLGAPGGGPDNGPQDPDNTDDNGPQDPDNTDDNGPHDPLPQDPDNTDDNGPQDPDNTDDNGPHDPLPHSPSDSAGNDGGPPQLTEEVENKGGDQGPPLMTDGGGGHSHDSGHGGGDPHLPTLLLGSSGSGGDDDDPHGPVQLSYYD", "test": "TES1-eGFP NF-kB reporter inhibition versus Tet-On dsRED, dose response, selectivity assay for LMP1 NF-kB inhibitor project, imaging, HEK293T, dual-color eGFP/dsRED, cherry-picks (AID 588398)", "assay_type": "functional, cell-based"}, "[9]": {"target": "T4, Corticotropin-releasing factor receptor 2/Corticotropin-releasing factor-binding protein (Homo sapiens, UniProt P24387+Q13324)", "T4 sequence (Q13324 whole entry)": "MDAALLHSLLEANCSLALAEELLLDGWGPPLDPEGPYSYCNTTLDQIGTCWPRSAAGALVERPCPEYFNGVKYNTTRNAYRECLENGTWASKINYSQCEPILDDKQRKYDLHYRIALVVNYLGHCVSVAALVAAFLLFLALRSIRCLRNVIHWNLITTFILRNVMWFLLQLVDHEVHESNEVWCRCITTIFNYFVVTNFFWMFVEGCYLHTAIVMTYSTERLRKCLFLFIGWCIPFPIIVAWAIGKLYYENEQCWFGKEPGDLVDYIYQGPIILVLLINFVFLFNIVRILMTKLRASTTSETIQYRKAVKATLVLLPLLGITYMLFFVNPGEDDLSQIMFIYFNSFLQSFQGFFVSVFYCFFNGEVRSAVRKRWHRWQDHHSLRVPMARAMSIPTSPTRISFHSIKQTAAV", "T4 sequence (P24387 whole entry)": "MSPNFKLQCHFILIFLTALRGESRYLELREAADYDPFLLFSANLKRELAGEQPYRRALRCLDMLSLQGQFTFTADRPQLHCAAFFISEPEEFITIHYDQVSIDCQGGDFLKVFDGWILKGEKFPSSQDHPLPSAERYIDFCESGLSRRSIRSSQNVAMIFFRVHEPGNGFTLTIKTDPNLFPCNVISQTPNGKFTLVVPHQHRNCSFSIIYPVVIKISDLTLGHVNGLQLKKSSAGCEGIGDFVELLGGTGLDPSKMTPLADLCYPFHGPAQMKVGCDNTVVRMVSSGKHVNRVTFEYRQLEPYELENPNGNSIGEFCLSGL", "test": "activators of CRF receptor 2 with binding protein – uHTS hits, confirmation (AID 602473)", "assay_type": "functional", "conditions": "read-out: EC50_Mean"}, "HeLa": {"system": "HeLa", "test": "HeLa cell cytotoxicity, dose response, cytotoxicity control, ATP luminescence, cherry-pick samples (AID 687004)", "assay_type": "functional, cell-based", "conditions": "Homo sapiens"}, "[10]": {"target": "T4, Corticotropin-releasing factor receptor 2/Corticotropin-releasing factor-binding protein", "test": "Dose Response confirmation of uHTS hits for small molecule antagonists of the CRF-binding protein and CRF-R2 receptor complex.", "assay_type": "functional", "conditions": "read-out: IC50_Mean"}, "[11]": {"test": "inhibitors of HIV Env-driven cell fusion, dose response, cherry-pick (AID 652057)", "assay_type": "functional, cell-based"}, "[12]": {"test": "inhibitors of clade B AD8 Env fusion, dose response, cell-based, cherry-pick (AID 652062);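 note: potency is for inhibitors of fusion seen as a drop in luminescence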", "assay_type": "functional"}, "[13]": {"test": "CEM21 lymphoblast cell cytotoxicity, dose response, cytotoxicity control for viral fusion inhibitor project, CellTiter-Glo luminescence, cherry-picked (AID 652042);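 note: potency for signal decrease meaning cytotoxicity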", "assay_type": "functional, cell-based"}, "[14]": {"test": "ZM109 Env clade C HIV-1 fusion inhibitors, dose response, HeLa effector, CEM target cells, luciferase, cherry-pick (AID 652058)", "assay_type": "functional, cell-based"}, "[15]": {"test": "HeLa cell cytotoxicity, dose response, cytotoxicity control for MgcRacGAP inhibitor project (AID 624300)", "assay_type": "functional"}, "[16]": {"test": "off-target signal loss in HeLa-CEM21 co-culture – HeLa F-luc CTL cells, cherry-picked, counter-screen for HIV-1 Env fusion inhibitor project, dose response (AID 652040);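 note: potency for signal decrease marking cytotoxic or nonspecific inhibition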", "assay_type": "functional, cell-based"}, "Albumin": {"target": "Albumin (Bos taurus, UniProt P02769)", "sequence (P02769 whole entry)": "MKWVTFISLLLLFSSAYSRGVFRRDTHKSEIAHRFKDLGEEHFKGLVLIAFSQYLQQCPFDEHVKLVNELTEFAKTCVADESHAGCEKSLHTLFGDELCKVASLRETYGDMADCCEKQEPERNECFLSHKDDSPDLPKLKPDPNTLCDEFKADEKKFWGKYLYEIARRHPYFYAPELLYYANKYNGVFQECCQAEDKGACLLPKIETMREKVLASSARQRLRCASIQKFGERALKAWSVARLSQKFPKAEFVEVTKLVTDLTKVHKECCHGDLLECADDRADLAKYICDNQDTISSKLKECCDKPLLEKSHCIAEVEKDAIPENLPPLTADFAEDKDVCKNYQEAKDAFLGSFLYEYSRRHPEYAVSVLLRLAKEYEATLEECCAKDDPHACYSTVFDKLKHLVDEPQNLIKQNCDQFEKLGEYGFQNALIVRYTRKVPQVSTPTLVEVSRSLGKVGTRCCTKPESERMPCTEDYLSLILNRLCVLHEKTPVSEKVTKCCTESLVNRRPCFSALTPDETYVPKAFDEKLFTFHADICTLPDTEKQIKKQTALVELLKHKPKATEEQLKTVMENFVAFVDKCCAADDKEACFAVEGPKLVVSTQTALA", "test": "Counterscreen for inhibitors of T-cell receptor (TCR)-CD3 interaction: Fluorescence-based biochemical high throughput dose response assay to identify inhibitors of T-cell receptor (TCR)-CD3 interaction using a TAMRA-labeled BSA probe.", "assay_type": "functional"}}, "note": "The source made the active and inactive calls.", "data": [{"smiles": "COc1ccccc1NC(=O)c1c(Nc2ccccc2C)sc(C(=O)Nc2cccc(Cl)c2)c1N", "values": [{"measurement": "Absolute IC50 (CHOP)", "setting": "[1]", "result": 10, "unit": "µM"}, {"measurement": "IC50", "setting": "[2]", "result": "> 69.5 µM (inactive)"}, {"measurement": "IC50", "setting": "[3]", "result": "> 69.5 µM (inactive)"}, {"measurement": "IC50", "setting": "[4]", "result": "80 µM (inactive)"}, {"measurement": "IC50", "setting": "[5]", "result": "26 µM (active)"}, {"measurement": "IC50", "setting": "[6]", "result": "> 69.5 µM (inactive)"}, {"measurement": "IC50", "setting": "[7]", "result": "> 7.73 µM (active)"}, {"measurement": "AC50", "setting": "[8]", "result": "21.3 µM (active)"}]}, {"smiles": "COC(=O)C1=C(C)N(Cc2ccccc2)C(=S)N[C@H]1c1cccc(F)c1", "values": [{"measurement": "EC50", "setting": "[9]", "result": "> 53 µM (inactive)"}, {"measurement": "AC50", "setting": "HeLa", "result": "> 52 µM (inactive)"}, {"measurement": "IC50", "setting": "[10]", "result": "> 47.1 µM (inactive)"}]}, {"smiles": "CCc1ccc(CNCCc2c[nH]c3ccccc23)cc1", "values": [{"measurement": "AC50", "setting": "[11]", "result": "4.4 µM (active)"}, {"measurement": "AC50", "setting": "[12]", "result": "12.2 µM (active)"}, {"measurement": "AC50", "setting": "[13]", "result": "31.7 µM (active)"}, {"measurement": "AC50", "setting": "[14]", "result": "4.01 µM (active)"}, {"measurement": "CC50", "setting": "[15]", "result": "100 µM (active)"}, {"measurement": "AC50", "setting": "[16]", "result": "6.36 µM (active)"}]}, {"smiles": "O=C(NNC(=S)NC(=O)c1cccc([N+](=O)[O-])c1)c1ccc(O)cc1", "values": [{"measurement": "IC50", "setting": "Albumin", "result": "> 94 µM (inactive)"}]}, {"smiles": "COc1cc(C(O)c2nc(-c3ccc4ccccc4c3)cs2)ccc1F", "note": "(stereo not given)", "values": [{"measurement": "IC50", "setting": "[2]", "result": "> 69.5 µM (inactive)"}, {"measurement": "IC50", "setting": "[7]", "result": "10.4 µM (inactive)"}]}]}
